{
  "source": "patent EP4069192B1",
  "about": "(Solis Herrera, Arturo, priority 2019, dated 2021)",
  "key": {"[1]": {"test_system": "A549 cells", "assay": "cells", "details": "Homo sapiens, A549, 96 h", "protocol": "(§1) Further, a proliferation test was prepared for the same three cell lines: WI-38, A549 and HS 683. 3x10^4 WI-38 cells and 2x10^4 A549 and HS 683. Cells were seeded into each wells in 96-well culture plates in appropriate culture medium with 10% FBS (fetal bovine serum). […] After 96 hours incubation in 37°C/5%CO2 MTT assay was performed for establishing the cell viability."}, "[2]": {"test_system": "HS-683", "assay": "cells", "details": "Homo sapiens, Hs 683, 96 h", "protocol": "as §1"}, "[3]": {"test_system": "WI-38 cells", "assay": "cells", "details": "Homo sapiens, WI-38, 96 h", "protocol": "as §1"}, "[4]": {"test_system": "IFN-γ production", "protocol": "(§2) After 24 hours of incubation in 37°C/5%CO2 samples of leukocytes and supernatants were collected.\n(§3) Cytokine levels were determined using ELISA kits (BD Biosciences, USA) for human IFNγ, TNF-α and IL-6 and DuoSet for human IL-3 (R&D Systems, USA) according to the producers' instructions. The optical density was measured at 450 nm using a Multiskan RC spectrophotometric reader (Thermo Labsystems, USA), Cytokine concentrations were expressed in pg/ml."}, "[5]": {"test_system": "IL-6 production", "protocol": "as §2, §3"}, "[6]": {"test_system": "TNF-α production", "protocol": "as §2, §3"}, "[7]": {"test_system": "H1N1 virus", "details": "0,002 mg/kg each 24 hours; 24 hours after treatment; 15000 treated vs 15000 control chicken, control turned down the production of eggs"}, "[8]": {"details": "rat, in vivo"}, "[9]": {"details": "in vivo"}, "[10]": {"test_system": "A549 (human lung adenocarcinoma epithelial cell line)", "details": "A549, 48 hours, MTT"}, "[11]": {"test_system": "HS683 (human neuronal glioma cell line)", "details": "HS-683, 48 hours, MTT"}, "[12]": {"test_system": "human PBLs (leukocytes of peripheral blood)", "details": "48 hours, MTT", "experimental": "Thereby, cell viability was determined on the basis of the mitochondria-dependent reduction of MTT (3-[4,5-dimethyltiazol 2yl]-2,5-diphenyltetrazolium bromide) to formazan. […] Next cells were treated with 20 µl of MTT. After 3 hours of incubation at 37°C, the formazan blue formed in the cells was dissolved in 100 µl of SDS (sodium dodecylsulfate) for 3 hours in 37°C. The optical density was measured at 570 nm.\nAfter the cytotoxicity tests LC50 (LC50-lethal concentration, 50%-dose required to kill half of the cells after a specified test duration) were estimated for each cell lines and PBLs (leukocytes of peripheral blood). Additionally for PBLs LC10 and LC5 were calculated.\nOn the basis of the results of MTT assay for human leukocytes the LC50, LC10 and LC5 were evaluated."}, "[13]": {"test_system": "cell proliferation", "assay": "cells", "details": "Homo sapiens, read-out: doses that inhibit 50% of cell proliferation"}, "[14]": {"details": "intranasal spray, single 3 mg dose, women, before emergence from general anesthesia; cited from earlier work"}, "[15]": {"details": "read-out: concentration that inhibits 50% of the proliferation"}},
  "data": [
    {"smiles": "CN1CCC[C@H]1c1cccnc1", "values": [
      {"measurement": "IC50", "setting": "[1]; [15]", "value": 2000, "unit": "µg/mL"},
      {"measurement": "IC99", "setting": "[1]; read-out: concentration that inhibits 99% of the proliferation", "value": 5500, "unit": "µg/mL"},
      {"measurement": "IC99", "setting": "[2]; read-out: concentration at which 99% of proliferation are inhibited", "value": 5500, "unit": "µg/mL"},
      {"measurement": "IC50", "setting": "[2]; [15]", "value": 2900, "unit": "µg/mL"},
      {"measurement": "IC50", "setting": "[3]; [15]", "value": 1000, "unit": "µg/mL"},
      {"measurement": "IC99", "setting": "[3]; read-out: concentration that inhibits a proliferation of 99%", "value": 4500, "unit": "µg/mL"},
      {"measurement": "effect on IFN-γ production", "setting": "[4]", "value": "strongly decreases the level of interferon in a dose-dependent manner"},
      {"measurement": "effect on IL-6 production", "setting": "[5]", "value": "no effect"},
      {"measurement": "effect on TNF-α production", "setting": "[6]", "value": "increases the level of cytokines in a dose-dependent manner"},
      {"measurement": "production of eggs", "setting": "[7]", "value": "began to lay off eggs"},
      {"measurement": "mortality", "setting": "[8]", "value": "0,625 of 8 rats"},
      {"measurement": "healing effect", "setting": "[9]", "value": "increased healing effect"},
      {"measurement": "LC50", "setting": "[10]", "value": "4,5 mg/ml"},
      {"measurement": "LC50", "setting": "[11]", "value": "3,5 mg/ml"},
      {"measurement": "LC5", "setting": "[12]", "value": "0,5 mg/ml"},
      {"measurement": "LC10", "setting": "[12]", "value": 1000, "unit": "µg/mL"},
      {"measurement": "IC50", "setting": "[13]", "value": "> 1000", "unit": "µg/mL"},
      {"measurement": "pain scores during the first day post-surgery", "setting": "[14]", "value": "significant reduction in pain scores"},
      {"measurement": "risks of hypertension of tachycardia", "setting": "[14]", "value": "not increasing the risks"}
    ]}
  ]
}
